According to US9636365B2, “Antibacterial food composition” (NUTRIVERCELL, priority 2009, dated 2017):
Where two headings read alike, the source gives them in different places.

How the values were obtained:
[1] = test system: E. coli strain secreting BLSE, NEC118564; assay: MIC, dilution in liquid medium (CA-SFM), second BLSE strain; type: cell-based, Escherichia coli; conditions: added composition at sub-inhibitory concentration (120 or 250 mg/L), 18 h, 37° C.
From the text: (§1) Six strains of Escherichia coli of different origins (cystitises, acute pyelonephritises, urinary chronic carriage), of different sensitivities to the main antibiotics customarily used in urinary infections and with different virulences, were selected from the strain library of the laboratory of the INSERM Espri 26 team: • 2 strains sensitive to ATBs: NECS892841 and NECS30090 • 2 strains resistant to quinolones: NECS858785 and NECS864598 • 2 strains secreting BLSE: NEC892420 and NEC118564
(§2) Three compositions were evaluated: • a composition comprising propolis powder on maltose dextrin • a composition comprising propolis powder on maltose dextrin and PACs of type A • a composition comprising maltose dextrin
(§3) Three antibiotics were studied: • ofloxacin • ceftriaxone • cefixime
(§4) The whole of the tubes were put into an oven at 37° C. overnight without stirring.

[2] = test system: E. coli strain resistant to quinolones (OFX R), NECS858785; assay: MIC, dilution in liquid medium (CA-SFM), first OFX R strain; type: cell-based, Escherichia coli; conditions: added composition at sub-inhibitory concentration (120 or 250 mg/L), 18 h, 37° C.
From the text: as §1, §2, §3, §4

[3] = test system: E. coli strain resistant to quinolones (OFX R), NECS864598; assay: MIC, dilution in liquid medium (CA-SFM), second OFX R strain; type: cell-based, Escherichia coli; conditions: added composition at sub-inhibitory concentration (120 or 250 mg/L), 18 h, 37° C.
From the text: as §1, §2, §3, §4

[4] = test system: E. coli strain secreting BLSE, NEC892420; assay: MIC, dilution in liquid medium (CA-SFM), first BLSE strain; type: cell-based, Escherichia coli; conditions: added composition at sub-inhibitory concentration (120 or 250 mg/L), 18 h, 37° C.
From the text: as §1, §2, §3, §4

[5] = test system: E. coli strain sensitive to ATBs (S), NECS30090; assay: MIC, dilution in liquid medium (CA-SFM), second S strain; type: cell-based, Escherichia coli; conditions: second S strain row; added composition at sub-inhibitory concentration (120 or 250 mg/L); 18 h, 37° C.
From the text: as §1, §2, §3, §4

[6] = test system: E. coli strain sensitive to ATBs (S), NECS892841; assay: MIC, dilution in liquid medium (CA-SFM), first S strain; type: cell-based, Escherichia coli; conditions: added composition at sub-inhibitory concentration (120 or 250 mg/L), 18 h, 37° C.
From the text: as §1, §2, §3, §4

[7] = Quantification of propolis polyphenols in human urines after ingesting the composition; type: in vivo
Method: Two healthy volunteers of more than 18 years of age, with efficient contraception and having followed a normal diet, followed a regimen comprising the ingestion of gelatin capsules according to the composition of Example 3.
Two regimens were followed: • taking 6 gelatin capsules, • taking 8 gelatin capsules.
The taking of gelatin capsules was carried out at 8.00 am and the urines were collected by micturition in a sterile flask before ingestion, 1-6 hours after ingestion, 12 hours after ingestion and 24 hours after ingestion.
The collected urines are hydrolyzed by enzymatic hydrolysis (glucuronidase and sulfatase), and the polyphenols are then extracted and purified on Sep-Pack.
The polyphenols of propolis such as pinocembrin and galangin are then characterized and assayed.

MIC of the antibiotic [1] [µg/mL]	MIC of the antibiotic [2] [µg/mL]	MIC of the antibiotic [3] [µg/mL]	MIC of the antibiotic [4] [µg/mL]	MIC of the antibiotic [5] [µg/mL]	MIC of the antibiotic [6] [µg/mL]	amount in human urines ([7]; human, in vivo) [mg/L]	concentration at 12 h ([7]; human, in vivo, amount in human urines) [ng/mL]	Structure (SMILES)	amount in human urines ([7]; 1-6 h after ingestion of 6 gelatin capsules of Example 3, urine hydrolyzed) [mg/L]	concentration at 12 h ([7]; human, in vivo, 12 h after ingestion of 6 gelatin capsules of Example 3, read-out: amount in human urines) [ng/mL]	concentration at 24 h ([7]; human, in vivo, 24 h after ingestion of 6 gelatin capsules of Example 3, read-out: amount in human urines) [ng/mL]	concentration at 24 h ([7]; human, in vivo, 24 h after ingestion of 8 gelatin capsules of Example 3, read-out: amount in human urines) [ng/mL]
>32	2	32	>32	0.25	1			CC1COc2c(N3CCN(C)CC3)c(F)cc3c(=O)c(C(=O)O)cn1c23 (stereo not drawn) [Ofloxacin, ofloxacin]				
8	0.5	1	16	0.5	1			C=CC1=C(C(=O)O)N2C(=O)[C@@H](NC(=O)/C(=N\OCC(=O)O)c3csc(N)n3)[C@H]2SC1 [Cefixime, cefixime]				
32	0.25	0.5	>32	0.5	1			CO/N=C(\C(=O)N[C@@H]1C(=O)N2C(C(=O)O)=C(CSc3nc(=O)c(O)nn3C)CS[C@H]12)c1csc(N)n1 [Ceftriaxon, ceftriaxone]				

The remaining lines, values behind:

Structure (SMILES)	MIC of the antibiotic [1] [µg/mL]	MIC of the antibiotic [2] [µg/mL]	MIC of the antibiotic [3] [µg/mL]	MIC of the antibiotic [4] [µg/mL]	MIC of the antibiotic [5] [µg/mL]	MIC of the antibiotic [6] [µg/mL]	amount in human urines ([7]; human, in vivo) [mg/L]	concentration at 12 h ([7]; human, in vivo, amount in human urines) [ng/mL]	amount in human urines ([7]; 1-6 h after ingestion of 6 gelatin capsules of Example 3, urine hydrolyzed) [mg/L]	concentration at 12 h ([7]; human, in vivo, 12 h after ingestion of 6 gelatin capsules of Example 3, read-out: amount in human urines) [ng/mL]	concentration at 24 h ([7]; human, in vivo, 24 h after ingestion of 6 gelatin capsules of Example 3, read-out: amount in human urines) [ng/mL]	concentration at 24 h ([7]; human, in vivo, 24 h after ingestion of 8 gelatin capsules of Example 3, read-out: amount in human urines) [ng/mL]
O=c1c(O)c(-c2ccccc2)oc2cc(O)cc(O)c12 [Galangin, galangin]									0.555	291	157	311
O=C1C[C@@H](c2ccccc2)Oc2cc(O)cc(O)c21 [Pinocembrin, pinocembrin]							3.344	1140				
